Counter-ions that a name gives are not always drawn.
Experiments:
[1] = molecular target: human AKT2 (Homo sapiens (Human), UniProt P31751); assay: AKT2 kinase activity inhibition (TR-FRET, biotinylated Crosstide substrate); type: biochemical; details: preincubation 120 min at 25° C.; ATP 150 μM; Crosstide 500 nM
Method: (§1) Preparation of AKT1 and AKT2 and measurement of in vitro inhibitory activity of the above-mentioned compounds against AKT1 and AKT2 kinase activity were carried out with reference to the method disclosed in Biochem. J. Vol. 385, pp 399-408 (2005). In the preparation of AKT1 and AKT2, human AKT1 and AKT2 to which a middle T antigen tag was added were expressed in Sf 9 insect cells, and then AKT1 and AKT2 were prepared following affinity purification and activation by PDK1. The prepared AKT1 and AKT2 were stored at −80° C. until the time of measurement of inhibitory activity of the compounds. In the measurement of inhibitory activity of the compounds, AKT1 or AKT2 and each compound of the present invention were preincubated at 25° C. for 120 minutes in a buffer solution for reaction (15 mM Tris-HCl pH 7.5, 0.01% Tween-20, 2 mM DTT). As a substrate, biotinylated Crosstide (bioton-KGSGSGRPRTSSFAEG), MgCl2, and ATP were added to final concentrations of 500 nM, 10 mM, and 150 μM, respectively, and reactions were carried out at 25° C. for 60 minutes. The reactions were stopped by adding EDTA to a final concentration of 80 mM. Then, a detection liquid in which an Eu-labeled anti-phosphorylation Crosstide antibody (PerkinElmer) and SureLight APC-SA (PerkinElmer) were contained at a final concentration of 0.5 nM and […], respectively, was added, and reactions were carried out at room temperature for 2 hours. Finally, the amount of fluorescence at the time of irradiation of excitation light having a wavelength of 337 nm was measured at dual wavelengths of 620 nm and 665 nm by PHERAstar FS (BMG LABTECH). The amount of phosphorylation was determined from the ratio of the fluorescence amounts at the dual wavelengths. The compound concentration at which phosphorylation can be inhibited by 50% was defined as […] (nM), and the results are shown in Table 4 below.

[2] = molecular target: human AKT1 (Homo sapiens (Human), UniProt P31749); assay: AKT1 kinase activity inhibition (TR-FRET, biotinylated Crosstide substrate); type: biochemical; details: preincubation 120 min at 25° C.; ATP 150 μM; Crosstide 500 nM
human AKT1, sequence (P31749 whole entry): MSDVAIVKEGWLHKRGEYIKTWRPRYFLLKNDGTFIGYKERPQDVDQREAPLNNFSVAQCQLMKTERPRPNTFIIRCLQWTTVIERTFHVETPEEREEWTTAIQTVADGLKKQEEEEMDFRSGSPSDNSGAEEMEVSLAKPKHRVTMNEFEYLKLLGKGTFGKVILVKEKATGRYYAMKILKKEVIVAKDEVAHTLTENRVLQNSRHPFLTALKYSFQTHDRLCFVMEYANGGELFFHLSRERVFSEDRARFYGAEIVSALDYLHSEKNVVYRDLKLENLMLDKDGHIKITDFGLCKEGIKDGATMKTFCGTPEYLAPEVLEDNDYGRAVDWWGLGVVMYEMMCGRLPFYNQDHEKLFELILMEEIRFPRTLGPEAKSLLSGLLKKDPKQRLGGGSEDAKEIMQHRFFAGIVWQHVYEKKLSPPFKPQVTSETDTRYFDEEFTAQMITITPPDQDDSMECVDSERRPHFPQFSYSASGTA
Method: as §1

human AKT2, sequence (P31751 whole entry): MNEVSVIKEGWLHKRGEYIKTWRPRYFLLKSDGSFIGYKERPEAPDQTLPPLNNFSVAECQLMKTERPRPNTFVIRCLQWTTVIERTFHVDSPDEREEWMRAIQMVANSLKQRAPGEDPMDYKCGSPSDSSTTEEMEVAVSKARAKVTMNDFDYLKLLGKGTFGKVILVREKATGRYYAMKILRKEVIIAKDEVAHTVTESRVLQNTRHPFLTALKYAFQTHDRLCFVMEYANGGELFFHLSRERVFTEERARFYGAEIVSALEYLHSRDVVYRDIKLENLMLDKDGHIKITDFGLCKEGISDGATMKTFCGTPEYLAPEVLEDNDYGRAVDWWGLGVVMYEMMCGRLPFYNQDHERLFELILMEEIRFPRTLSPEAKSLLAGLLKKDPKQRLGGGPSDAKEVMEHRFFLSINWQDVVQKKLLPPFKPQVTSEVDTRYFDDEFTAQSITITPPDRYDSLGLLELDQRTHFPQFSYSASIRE

Molecule | IC50 [1] [nM] | IC50 [2] [nM]
CC1(O)CC(N)(c2ccc(-c3nc4n(c3-c3ccccc3)COc3cc(C#N)ccc3-4)cc2)C1 (stereo not drawn) [Example 47, 2-(4-(trans-1-amino-3-hydroxy-3-methylcyclobutyl)phenyl)-3-phenyl-5H-benzo[e]imidazo[1,2-c][1,3]oxazine-8-carbonitrile] | 1.2 | 6.2
CC1(O)CC(N)(c2ccc(-c3nc4n(c3-c3ccccc3)COc3ccc(C(=O)NCCO)cc3-4)cc2)C1 (stereo not drawn) [Example 60, 2-(4-(trans-1-amino-3-hydroxy-3-methylcyclobutyl)phenyl)-N-(2-hydroxyethyl)-3-phenyl-5H-benzo[e]imidazo[1,2-c][1,3]oxazine-9-carboxamide] | 0.57 | 2.4
COc1ccc2c(c1)OCn1c-2nc(-c2ccc(C3(N)CC(C)(O)C3)cc2)c1-c1ccccc1 (stereo not drawn) [Example 21, trans-3-amino-3-(4-(8-methoxy-3-phenyl-5H-benzo[e]imidazo[1,2-c][1,3]oxazin-2-yl)phenyl)-1-methylcyclobutanol] | 0.91 | 6
NC1(c2ccc(-c3nc4n(c3-c3ccncc3)COc3ccccc3-4)cc2)CCC1 [Example 15, 1-(4-(3-(pyridin-4-yl)-5H-benzo[e]imidazo[1,2-c][1,3]oxazin-2-yl)phenyl)cyclobutanamine] | 6.5 | 51
NC1(c2ccc(-c3nc4n(c3-c3ccccc3)COc3ncccc3-4)cc2)CCC1 [Example 40, 1-(4-(3-phenyl-5H-imidazo[1,2-c]pyrido[3,2-e][1,3]oxazin-2-yl)phenyl)cyclobutanamine] | 1.6 | 3.9
COc1cc(OC)c2c(c1)OCn1c-2nc(-c2ccc(C3(N)CC(O)(C4CC4)C3)cc2)c1-c1ccccc1 (stereo not drawn) [Example 25, trans-3-amino-1-cyclopropyl-3-(4-(8,10-dimethoxy-3-phenyl-5H-benzo[e]imidazo[1,2-c][1,3]oxazin-2-yl)phenyl)cyclobutanol] | 0.27 | 12
NC1(c2ccc(-c3nc4n(c3-c3ccccc3)COc3cccc(Cl)c3-4)cc2)CC(O)(C2CC2)C1 (stereo not drawn) [Example 22, trans-3-amino-3-(4-(10-chloro-3-phenyl-5H-benzo[e]imidazo[1,2-c][1,3]oxazin-2-yl)phenyl)-1-cyclopropylcyclobutanol] | 0.3 | 8.2
C[C@]1(O)C[C@@](N)(c2ccc(-c3nc4n(c3-c3ccccc3)COc3ccccc3-4)cc2)C1 [Example 12, trans-3-amino-1-methyl-3-(4-(3-phenyl-5H-benzo[e]imidazo[1,2-c][1,3]oxazin-2-yl)phenyl)cyclobutanol] | 1.7 | 5.3
CCC1(O)CC(N)(c2ccc(-c3nc4n(c3-c3ccccc3)COc3nccnc3-4)cc2)C1 (stereo not drawn) [Example 43, trans-3-amino-1-ethyl-3-(4-(3-phenyl-5H-imidazo[1,2-c]pyrazino[2,3-e][1,3]oxazin-2-yl)phenyl)cyclobutanol] | 7 | 8
CCOc1cccc2c1-c1nc(-c3ccc(C4(N)CC(C)(O)C4)cc3)c(-c3ccccc3)n1CO2 (stereo not drawn) [Example 24, trans-3-amino-3-(4-(10-ethoxy-3-phenyl-5H-benzo[e]imidazo[1,2-c][1,3]oxazin-2-yl)phenyl)-1-methylcyclobutanol] | 1.8 | 30
CC1(O)CC(N)(c2ccc(-c3nc4n(c3-c3ccccc3)COc3cc(C(=O)O)ccc3-4)cc2)C1 (stereo not drawn) [Example 64, 2-(4-(trans-1-amino-3-hydroxy-3-methylcyclobutyl)phenyl)-3-phenyl-5H-benzo[e]imidazo[1,2-c][1,3]oxazine-8-carboxylic acid hydrochloride] | 0.94 | 3.1
CC1(O)CC(N)(c2ccc(-c3nc4n(c3-c3ccccc3)COc3cc(C(N)=O)ccc3-4)cc2)C1 (stereo not drawn) [Example 62, 2-(4-(trans-1-amino-3-hydroxy-3-methylcyclobutyl)phenyl)-3-phenyl-5H-benzo[e]imidazo[1,2-c][1,3]oxazine-8-carboxamide] | 0.4 | 1.3
COc1ccc2c(c1)-c1nc(-c3ccc(C4(N)CC(C)(O)C4)cc3)c(-c3ccccc3)n1CO2 (stereo not drawn) [Example 20, trans-3-amino-3-(4-(9-methoxy-3-phenyl-5H-benzo[e]imidazo[1,2-c][1,3]oxazin-2-yl)phenyl)-1-methylcyclobutanol] | 0.75 | 2.9
CNC(=O)c1ccc2c(c1)-c1nc(-c3ccc([C@]4(N)C[C@](C)(O)C4)cc3)c(-c3ccccc3)n1CO2 [Example 52, 2-(4-(trans-1-amino-3-hydroxy-3-methylcyclobutyl)phenyl)-N-methyl-3-phenyl-5H-benzo[e]imidazo[1,2-c][1,3]oxazine-9-carboxamide] | 0.28 | 1.5
NC1(c2ccc(-c3nc4n(c3-c3ccccc3)COc3cnccc3-4)cc2)CCC1 [Example 37, 1-(4-(3-phenyl-5H-imidazo[1,2-c]pyrido[4,3-e][1,3]oxazin-2-yl)phenyl)cyclobutanamine] | 1.1 | 5.5
CCONC(=O)c1ccc2c(c1)-c1nc(-c3ccc([C@]4(N)C[C@](C)(O)C4)cc3)c(-c3ccccc3)n1CO2 [Example 61, 2-(4-(trans-1-amino-3-hydroxy-3-methylcyclobutyl)phenyl)-N-ethoxy-3-phenyl-5H-benzo[e]imidazo[1,2-c][1,3]oxazine-9-carboxamide] | 0.4 | 1.8
NC1(c2ccc(-c3nc4n(c3-c3ccccc3)COc3ccncc3-4)cc2)CCC1 [Example 33, 1-(4-(3-phenyl-5H-imidazo[1,2-c]pyrido[3,4-e][1,3]oxazin-2-yl)phenyl)cyclobutanamine] | 1.7 | 14
COc1ccc2c(n1)-c1nc(-c3ccc(C4(N)CC(C)(O)C4)cc3)c(-c3ccccc3)n1CO2 (stereo not drawn) [Example 51, trans-3-amino-3-(4-(9-methoxy-3-phenyl-5H-imidazo[1,2-c]pyrido[2,3-e][1,3]oxazin-2-yl)phenyl)-1-methylcyclobutanol] | 1.1 | 5.5
CC1(O)CC(N)(c2ccc(-c3nc4n(c3-c3ccncc3)COc3cccc(F)c3-4)cc2)C1 (stereo not drawn) [Example 7, trans-3-amino-3-(4-(10-fluoro-3-(pyridin-4-yl)-5H-benzo[e]imidazo[1,2-c][1,3]oxazin-2-yl)phenyl)-1-methylcyclobutanol] | 1.1 | 25
CN(C)C(=O)c1ccc2c(c1)-c1nc(-c3ccc(C4(N)CC(C)(O)C4)cc3)c(-c3ccccc3)n1CO2 (stereo not drawn) [Example 54, 2-(4-(trans-1-amino-3-hydroxy-3-methylcyclobutyl)phenyl)-N,N-dimethyl-3-phenyl-5H-benzo[e]imidazo[1,2-c][1,3]oxazine-9-carboxamide] | 1.3 | 4.4
CC[C@]1(O)C[C@@](N)(c2ccc(-c3nc4n(c3-c3ccccc3)COc3ccncc3-4)cc2)C1 [Example 34, trans-3-amino-1-ethyl-3-(4-(3-phenyl-5H-imidazo[1,2-c]pyrido[3,4-e][1,3]oxazin-2-yl)phenyl)cyclobutanol] | 2.1 | 12
trans-3-amino-1-methyl-3-(4-(3-phenyl-5H-imidazo[1,2-c]pyrazino[2,3-e][1,3]oxazin-2-yl)phenyl)cyclobutanol [Example 42] | 4 | 6.4

Source: patent US8772283B2, “Imidazo-oxazine compound or salt thereof” (Taiho Pharmaceutical Co., Ltd., priority 2011, dated 2014)
